Measured values reported in patent US20130210852A1, “METHODS FOR TREATING INFECTION” (priority 2010, published 2013).
Entries after “also recorded” stand apart in the source; their conditions may differ.

Legend:
[1] = test system: EAEC strain O42 adherence to HEp-2 cells; format: cell-based, human
[2] = test system: EAEC strain O42 adherence to HeLa cells; format: cell-based, human; conditions: 24 h pretreatment with 64 mg (FIG. 2: 64 μg/ml), EAEC 3 h
[3] = test system: EAEC strain O42 adherence to A549 cells; format: cell-based, human; conditions: 24 h pretreatment with 64 mg (FIG. 2: 64 μg/ml), EAEC 3 h
[4] = test system: B. anthracis Sterne strain 7702 spores on A549 cells; format: cell-based, human; conditions: A549 cells pretreated 24 h, spores 1 h
S. sonnei on HeLa cells = test: S. sonnei adherence and internalization in HeLa cells; format: cell-based, human; conditions: HeLa cells pretreated 24 h
S sonnei isolate = test: Isolate viability after rifaximin exposure, S sonnei; format: cell-based, Shigella sonnei
MMP-9 in EAEC isolates = test: Matrix metalloproteinase-9 detection by gelatin zymography, EAEC; format: cell-based, Escherichia coli
Description: (§1) Matrix Metalloproteinase-9 Detection Expression of matrix metalloproteinase-9 (MMP-9) was analyzed using gelatin zymography in all viable EAEC and S. sonnei isolates growing on MacConkey agar. Isolates were suspended in 1 mL of 0.1 M phosphate buffered saline (pH 7.2) and centrifuged at 1000 g for 10 minutes at 4° C. The supernatant was subjected to gelatin zymography to detect MMP-9 activity using a modified Heussen and Dowdle protocol (9). In summary, the supernatant was diluted 1:2 in a sample buffer (125 mM Tris-HCl, pH 6.8, 20% glycerol, 4% sodium dodecyl sulfate, 0.02% bromphenol blue), and 20 μL was loaded on to a 10% SDS-PAGE gel containing 1 mg/mL gelatin. Prestained standard proteins were used as molecular weight markers. After electrophoresis, gels were rinsed with incubation buffer (2.5% triton X-100, 50 mM Tris-HCl, pH 7.4, 0.02% Brij 35, 10 mM CaCl2, 2 μM ZnCl2) for 1 hour at room temperature to remove SDS. Gels were then incubated overnight at 37° C. and subsequently stained with Coomassie brilliant blue R-250 (Thermo Fisher Scientific, Inc, Rockford, Ill.). […] Matrix metalloproteinase-9 was identified among all gelatinolytic proteins by size.

[5] = test system: MMP-9 in S sonnei isolate; test: Matrix metalloproteinase-9 detection by gelatin zymography, S sonnei; format: cell-based, Shigella sonnei
Description: as §1

EAEC = conditions: previously established in the applicant's laboratory; cited from earlier work
HEp-2 cells = test: Cytokine arrays of HEp-2 supernatants (Panomics); conditions: antibiotic 64 μg/ml, 24 h
EAEC isolates = test: Isolate viability after rifaximin exposure, EAEC

Q: Which “EAEC adherence to HEp-2 cells (CFU, % of total bacteria added)” value [1] does the source give for `CO[C@H]1/C=C/O[C@@]2(C)Oc3c(C)c(O)c4c(O)c(c5c(nc6cc(C)ccn65)c4c3C2=O)NC(=O)/C(C)=C\C=C\[C@H](C)[C@H](O)[C@@H](C)[C@@H](O)[C@@H](C)[C@H](OC(C)=O)[C@@H]1C` [Rifaximin, (2S,16Z,18E,20S,21S,22R,23R,24R,25S,26S,27S,28E)-5,6,21,23,25 Pentahydroxy-27-methoxy-2,4,11,16,20,22,24,26-octamethyl-2,7-(epoxypentadeca-(1,11,13)trienimino)benzofuro (4,5-e) pyrido(1,2,-a) benzimidazole-1,15(2H)-dione,25-acetate] here?
A: significantly lower; also recorded: significantly reduced; also recorded: reduced EAEC adherence

Q: And the “EAEC bacterial counts in the supernatants” value ([1]; HEp-2 cells pretreated 24 h, EAEC 3 h)?
A: No differences in bacterial counts

Q: What about the “EAEC adherence to HeLa cells” value [2] of the same compound?
A: significantly reduced

Q: And the “EAEC adherence to A549 cells” value [3]?
A: significantly reduced

Q: And the “adherence of B. anthracis” value [4]?
A: significant reductions

Q: And the “internalization of B. anthracis” value ([4]; then gentamicin 100 μg/ml 1 h)?
A: significant reductions

Q: And the S. sonnei attachment (S. sonnei on HeLa cells)?
A: no effect

Q: And the S. sonnei internalization (S. sonnei on HeLa cells; gentamicin protection)?
A: no effect

Q: What about the “S sonnei viability after exposure” value (S sonnei isolate; rifaximin 8 mg/L for 4, 8, 18, and 24 hours) of the same compound?
A: viable

Q: And the “S sonnei viability after exposure” value (S sonnei isolate; rifaximin 32 or 64 mg/L at any time point)?
A: not viable

Q: What about the “MMP-9 expression by EAEC isolates” value (MMP-9 in EAEC isolates; rifaximin 8 mg/L for 4 and 8 hours) of the same compound?
A: expressed MMP-9

Q: What about the “MMP-9 expression by EAEC isolates” value (MMP-9 in EAEC isolates; rifaximin 8 mg/L for 24 hours) of the same compound?
A: undetectable

Q: And the “MMP-9 expression by EAEC isolates” value (MMP-9 in EAEC isolates; rifaximin 8 mg/L, 18-hour time point)?
A: one EAEC isolate produced MMP-9, but the other isolate did not

Q: And the “MMP-9 expression by EAEC isolates” value (MMP-9 in EAEC isolates; rifaximin 32 or 64 mg/L for 4, 8, or 18 hours)?
A: undetectable

Q: What about the “MMP-9 in the S sonnei isolate” value ([5]; other time points and rifaximin concentrations) of the same compound?
A: either undetectable or the isolate was not viable

Q: What about the “MMP-9 in the S sonnei isolate” value ([5]; rifaximin 8 mg/L for 4 hours) of the same compound?
A: detectable

Q: What about the “MIC50 for EAEC” value (EAEC) of the same compound?
A: 64 mg/L

Q: And the “cytokine profile of HEp-2 supernatants” value (HEp-2 cells)?
A: contained detectable levels of RANTES and IL-4 only; also recorded: reduced the expression of various proinflammatory cytokines

Q: What about the “EAEC viability after exposure” value (EAEC isolates; rifaximin 8 mg/L for 24 hours) of the same compound?
A: viable

Q: And the “EAEC viability after exposure” value (EAEC isolates; rifaximin 8, 32, and 64 mg/L at 4, 8, and 18 hours)?
A: viable

Q: What about the “EAEC viability after exposure” value (EAEC isolates; rifaximin 32 and 64 mg/L for 24 hours) of the same compound?
A: no viable isolates were recovered
